Test results from PMC4086519, “Anti-Trichophyton Activity of Protocatechuates and Their Synergism with Fluconazole” (Evidence-based Complementary and Alternative Medicine : eCAM, 2014).
In brackets after ≈: the same amount, converted by molar mass. Like-named read-outs stand apart in the source and are kept apart here.

Experiments:
Assay type in all cases: cell-based
[1] = test system: Trichophyton mentagrophytes; assay: Minimum fungicide concentration (MFC)
Method: (§1) A qualitative analysis of the fungal viability was performed by transferring a portion of the wells to a plate with Sabouraud (Difco, BD Biosciences) medium and incubating it at 35°C for the time determined for each fungal agent. […] A visual reading was performed to confirm the death or growth inhibition provided by fluconazole and the sixteen semisynthetic substances derived from protocatechuic acid.

Trichophyton rubrum [2] = assay: Minimum fungicide concentration (MFC)
Method: as §1

[3] = test system: Trichophyton mentagrophytes; assay: Broth microdilution MIC (CLSI M38-A2, modified)
Method: (§2) To evaluate its antifungal activity, […] of dermatophytes were tested: two clinical strains of Trichophyton rubrum (Tr1 and Tr2), Trichophyton rubrum ATCC MYA 3108, two clinical strains of Trichophyton mentagrophytes (Tm1 and Tm2), and Trichophyton mentagrophytes ATCC 40131 (Tm3). The microorganisms were obtained from the collection of the Clinical Mycology Laboratory of the Department of Clinical Analyses at the School of Pharmaceutical Sciences of Universidade Estadual Paulista (UNESP). The strains were cultivated on Sabouraud dextrose agar (Difco, BD Biosciences) and incubated at 28°C for 7-15 days. For all experiments, the strains were cultivated on Potato Dextrose Agar (Difco, BD Biosciences) and incubated at 28°C as described above or until sporulation. The dilution of the synthetic compounds was performed with DMSO (Synth, Diadema, Sao Paulo, Brazil) as described by Scorzoni et al.. […] The antifungal drugs were diluted according to the CLSI […]-A2 document. Stock solutions of Fluconazole (Sigma-Aldrich, St. Louis, MO, USA) were prepared, considering its power. Serial twofold dilutions were prepared according to the recommendations of Zhang and collaborators, with some modifications. The antifungal activity tests were performed using the broth microdilution method as described in […]-A2, a document produced by the Clinical and Laboratory Standards Institute (CLSI, 2008), with modifications. The medium used was RPMI 1640 with L-glutamine (Sigma-Aldrich, St. Louis, MO, USA) buffered to pH 7.0 with 0.165 M morpholinepropanesulfonic acid (MOPS) (Sigma-Aldrich, St. Louis, MO, USA), supplemented with 2% glucose. […] The suspension of conidia was then transferred to small sterile test tubes where they remained for 40 minutes to separate the microconidia, which were lighter and therefore present in the supernatant. […] These suspensions were diluted in RPMI 1640 (Sigma-Aldrich, St. […] Positive (100 μL of RPMI medium with 100 μL of inoculum) and negative (200 μL of RPMI) controls were included in all experiments. The plates were incubated with agitation at 35°C for 7 days. The MIC reading was performed by spectrophotometry at 490 nm.

Trichophyton rubrum [4] = assay: Broth microdilution MIC (CLSI M38-A2, modified)
Method: as §2

[5] = test system: Trichophyton mentagrophytes; assay: Checkerboard synergism assay with fluconazole; settings: Trichophyton mentagrophytes, checkerboard, 168 hours, read-out: MIC, substances alone
Method: (§3) The drug activity was assessed using a checkerboard method derived from a standardised procedure established by the National Committee for Clinical Laboratory Standards ([…]-A2). Briefly, the test was performed on the same medium used for susceptibility testing. Volumes of 50 μL of each drug in a concentration four times the final concentration were dispensed in 96-well plates ([…], Switzerland). To each well, 100 μL of the fungal suspension was added to produce a final concentration of 5.0 × 10^3 CFU/mL. As a negative control, we used 200 μL of RPMI, while as a positive control, we used 100 μL of RPMI medium with 100 μL of inoculum. The plates were incubated at 35°C, and the reading was completed after 168 hours. We conducted visual and spectrophotometric readings at 490 nm. To determine the effect of combinatorial fractions, we calculated the fractional inhibitory concentration (FIC). The FIC was calculated by taking the MIC of the substance in combination/MIC of the substance alone. The sum of the fractional inhibitory concentration (FIC) of each substance consists of the fractional inhibitory concentration index: (the MIC of drug A in combination/the MIC of drug A alone) + (the MIC of drug B in combination/the MIC of drug B alone).

Trichophyton rubrum [6] = assay: Checkerboard synergism assay with fluconazole; settings: Trichophyton rubrum; Tr1; checkerboard, 168 hours; read-out: MIC, substances alone
Method: as §3

[7] = Tr2, T. rubrum clinical isolate
[8] = Tm2, clinical isolate, 35°C, 7 days
[9] = Tr2, T. rubrum clinical isolate, 35°C, 7 days
[10] = Tr3, T. rubrum ATCC MYA 3108, 35°C, 7 days
[11] = Tm3, T. mentagrophytes ATCC 40131
[12] = Tr1, T. rubrum clinical isolate
[13] = Tm1, clinical isolate, 35°C, 7 days
[14] = Tm3, T. mentagrophytes ATCC 40131, 35°C, 7 days
[15] = Tr1, T. rubrum clinical isolate, 35°C, 7 days

Row | Structure (SMILES) | MFC ([1]; Tm2, clinical isolate) | MFC (Trichophyton rubrum [2]; [7]) | MFC (Trichophyton rubrum [2]; Tr3, T. rubrum ATCC MYA 3108) | MIC [3, 8] | MIC (Trichophyton rubrum [4]; [9]) | MIC (Trichophyton rubrum [4]; [10]) | MFC ([1]; Tm1, clinical isolate) | MFC [1, 11] | MFC (Trichophyton rubrum [2]; [12]) | MIC [3, 13] | MIC [3, 14] | MIC (Trichophyton rubrum [4]; [15]) | other results
1 | CC(=O)Oc1ccc(C(=O)O)cc1OC(C)=O [Acid 3.4 diacetoxybenzoic, 3,4-diacetoxybenzoic acid] |  |  |  |  |  |  |  |  |  |  |  |  | MFC ([1]; Trichophyton mentagrophytes, ATCC40131, Tm3, T. mentagrophytes ATCC 40131, read-out: MFC): 250 µg/mL (≈ 1050 µM); MFC ([1]; Trichophyton mentagrophytes, Tm1, clinical isolate, read-out: MFC): 250 µg/mL (≈ 1050 µM); MFC ([1]; Trichophyton mentagrophytes, Tm2, clinical isolate, read-out: MFC): > 250 µg/mL; MFC (Trichophyton rubrum [2]; Trichophyton rubrum, Tr1, T. rubrum clinical isolate, read-out: MFC): 250 µg/mL (≈ 1050 µM); MFC (Trichophyton rubrum [2]; Trichophyton rubrum, Tr2, T. rubrum clinical isolate, read-out: MFC): > 250 µg/mL; MFC (Trichophyton rubrum [2]; Trichophyton rubrum, Tr3, T. rubrum ATCC MYA 3108, read-out: MFC): > 250 µg/mL; MIC ([3]; Trichophyton mentagrophytes, 168 h, Tm1, clinical isolate, 35°C, 7 days, read-out: MIC): 250 µg/mL (≈ 1050 µM); MIC ([3]; Trichophyton mentagrophytes, 168 h, Tm2, clinical isolate, 35°C, 7 days, read-out: MIC): > 250 µg/mL; MIC ([3]; Trichophyton mentagrophytes, ATCC40131, 168 h, Tm3, T. mentagrophytes ATCC 40131, 35°C, 7 days, read-out: MIC): 250 µg/mL (≈ 1050 µM); MIC (Trichophyton rubrum [4]; Trichophyton rubrum, 168 h, Tr1, T. rubrum clinical isolate, 35°C, 7 days, read-out: MIC): 250 µg/mL (≈ 1050 µM); MIC (Trichophyton rubrum [4]; Trichophyton rubrum, 168 h, Tr2, T. rubrum clinical isolate, 35°C, 7 days, read-out: MIC): > 250 µg/mL; MIC (Trichophyton rubrum [4]; Trichophyton rubrum, 168 h, Tr3, T. rubrum ATCC MYA 3108, 35°C, 7 days, read-out: MIC): > 250 µg/mL
2 | O=C(O)c1ccc(O)c(O)c1 [Acid protocatechuic, Protocatechuic acid (3,4-dihydroxybenzoic)] | > 250 µg/mL | 250 µg/mL (≈ 1620 µM) | 250 µg/mL (≈ 1620 µM) | 250 µg/mL (≈ 1620 µM) | 250 µg/mL (≈ 1620 µM) | 250 µg/mL (≈ 1620 µM) |  |  |  |  |  |  | MFC ([1]; Trichophyton mentagrophytes): > 250 µg/mL; MFC ([1]; Trichophyton mentagrophytes, ATCC40131): 125 µg/mL (≈ 811 µM); MFC (Trichophyton rubrum [2]; Trichophyton rubrum): 250 µg/mL (≈ 1620 µM); MIC ([3]; Trichophyton mentagrophytes, 168 h): 250 µg/mL (≈ 1620 µM); MIC ([3]; Trichophyton mentagrophytes, ATCC40131, 168 h): 125 µg/mL (≈ 811 µM); MIC (Trichophyton rubrum [4]; Trichophyton rubrum, 168 h): 250 µg/mL (≈ 1620 µM)
3 | OC(Cn1cncn1)(Cn1cncn1)c1ccc(F)cc1F [FLU, Fluconazole] |  |  |  |  |  |  |  |  |  |  |  |  | MIC ([5]; ATCC40131, Tm3 (ATCC 40131)): 0.5 µg/mL; MIC ([5]; Tm1): 1 µg/mL; MIC (Trichophyton rubrum [6]): 2 µg/mL
4 | CCCCOC(=O)c1ccc(O)c(O)c1 [Protocatechuate butyl] | 15.6 µg/mL (≈ 74.2 µM) | 7.8 µg/mL (≈ 37.1 µM) | 7.8 µg/mL (≈ 37.1 µM) | 15.6 µg/mL (≈ 74.2 µM) | 7.8 µg/mL (≈ 37.1 µM) | 7.8 µg/mL (≈ 37.1 µM) | 62.5 µg/mL (≈ 297 µM) | 15.6 µg/mL (≈ 74.2 µM) | 15.6 µg/mL (≈ 74.2 µM) | 7.80 µg/mL (≈ 37.1 µM) | 15.6 µg/mL (≈ 74.2 µM) | 15.6 µg/mL (≈ 74.2 µM) | 
5 | CCCCCCCCCCOC(=O)c1ccc(O)c(O)c1 [Protocatechuate decyl] | 3.9 µg/mL (≈ 13.2 µM) | 3.9 µg/mL (≈ 13.2 µM) | 7.8 µg/mL (≈ 26.5 µM) | 3.9 µg/mL (≈ 13.2 µM) | 3.9 µg/mL (≈ 13.2 µM) | 3.90 µg/mL (≈ 13.2 µM) | 7.8 µg/mL (≈ 26.5 µM) | 15.6 µg/mL (≈ 53 µM) | 3.9 µg/mL (≈ 13.2 µM) | 7.8 µg/mL (≈ 26.5 µM) | 3.90 µg/mL (≈ 13.2 µM) | 3.9 µg/mL (≈ 13.2 µM) | 
6 | CCCCCCCCCCCCOC(=O)c1ccc(O)c(O)c1 [Protocatechuate dodecyl] | 62.5 µg/mL (≈ 194 µM) | 125 µg/mL (≈ 388 µM) | 250 µg/mL (≈ 775 µM) | 62.5 µg/mL (≈ 194 µM) | 125 µg/mL (≈ 388 µM) | > 250 µg/mL | 250 µg/mL (≈ 775 µM) | 62.5 µg/mL (≈ 194 µM) | > 250 µg/mL | 250 µg/mL (≈ 775 µM) | 31.2 µg/mL (≈ 96.8 µM) | > 250 µg/mL | 
